Where “and” joins values, the source holds several entries; their conditions need not be identical. Equal values may be shown once.
Tested on: 565726-208-R1-J5-PDC complex spheroids, growth inhibition
Assay: Anticancer human tumor 565726-208-R1-J5-PDC patient-derived pancreatic adenocarcinoma cell line growth inhibition [RAS]
Conditions: for viability, T/C: stronger effect = lower value
How it was run: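 Multi-cell-type spheroids: tumor cells plus HUVEC endothelial cells and mesenchymal stem cells. RAS-pathway inhibitors were combined with targeted agents, each dosed in half-log steps down from clinical Cmax, or from 10 microM when Cmax was unknown.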

[1] = curve of first compound, second compound 0.000949 µM
[2] = curve of first compound, second compound 0.003 µM
[3] = curve of first compound, second compound 0.00949 µM
[4] = curve of first compound, second compound 0.03 µM
[5] = curve of first compound, second compound 0.0949 µM
[6] = curve of first compound, second compound 0.3 µM
[7] = second compound 0.000949 µM, first compound 0.0316 µM
[8] = second compound 0.000949 µM, first compound 0.1 µM
[9] = second compound 0.000949 µM, first compound 0.316 µM
[10] = second compound 0.000949 µM, first compound 1 µM
[11] = second compound 0.000949 µM, first compound 3.16 µM
[12] = second compound 0.000949 µM, first compound 10 µM
[13] = second compound 0.003 µM, first compound 0.0316 µM
[14] = second compound 0.003 µM, first compound 0.1 µM
[15] = second compound 0.003 µM, first compound 0.316 µM
[16] = second compound 0.003 µM, first compound 1 µM
[17] = second compound 0.003 µM, first compound 3.16 µM
[18] = second compound 0.003 µM, first compound 10 µM
[19] = second compound 0.00949 µM, first compound 0.0316 µM
[20] = second compound 0.00949 µM, first compound 0.1 µM
[21] = second compound 0.00949 µM, first compound 0.316 µM
[22] = second compound 0.00949 µM, first compound 1 µM
[23] = second compound 0.00949 µM, first compound 3.16 µM
[24] = second compound 0.00949 µM, first compound 10 µM
[25] = second compound 0.03 µM, first compound 0.0316 µM
[26] = second compound 0.03 µM, first compound 0.1 µM
[27] = second compound 0.03 µM, first compound 0.316 µM
[28] = second compound 0.03 µM, first compound 1 µM
[29] = second compound 0.03 µM, first compound 3.16 µM
[30] = second compound 0.03 µM, first compound 10 µM
[31] = second compound 0.0949 µM, first compound 0.0316 µM
[32] = second compound 0.0949 µM, first compound 0.1 µM
[33] = second compound 0.0949 µM, first compound 0.316 µM
[34] = second compound 0.0949 µM, first compound 1 µM
[35] = second compound 0.0949 µM, first compound 3.16 µM
[36] = second compound 0.0949 µM, first compound 10 µM
[37] = second compound 0.3 µM, first compound 0.0316 µM
[38] = second compound 0.3 µM, first compound 0.1 µM
[39] = second compound 0.3 µM, first compound 0.316 µM
[40] = second compound 0.3 µM, first compound 1 µM
[41] = second compound 0.3 µM, first compound 3.16 µM
[42] = second compound 0.3 µM, first compound 10 µM
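Further: spheroids exposed to compounds for seven days before readout.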
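Wherever viability, T/C is given: 100% = DMSO vehicle control viability.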

For CC(C)NCC(C(=O)N1CCN(c2ncnc3c2C(C)CC3O)CC1)c1ccc(Cl)cc1 (stereo unspecified) + CCn1c(-c2cc(N3CCN(C)CC3)cnc2C(C)OC)c2c3cc(ccc31)-c1csc(n1)CC(NC(=O)C1CC1C)C(=O)N1CCCC(N1)C(=O)OCC(C)(C)C2, the IC50 [1] was 1520 nM, the IC50 [2] was 347 nM and the IC50 [3] was < 31.6 nM. The IC50 [4] was < 31.6 nM, the IC50 [5] was < 31.6 nM and the IC50 [6] was < 31.6 nM. It also gave a viability, T/C [7] of 66.7%, a viability, T/C [8] of 64.6% and a viability, T/C [9] of 62.8%. For the same molecule, the viability, T/C [10] was 51.7%, the viability, T/C [11] was 43.9% and the viability, T/C [12] was 28.7%. For the same molecule, the viability, T/C [13] was 59.2%, the viability, T/C [14] was 58.8% and the viability, T/C [15] was 48.7%. It also gave a viability, T/C [16] of 41.2%, a viability, T/C [17] of 38.3% and a viability, T/C [18] of 21.4%. The viability, T/C [19] was 42.5%, the viability, T/C [20] was 41.8% and the viability, T/C [21] was 38.5%. It also gave a viability, T/C [22] of 34.5%, a viability, T/C [23] of 33.1% and a viability, T/C [24] of 18.3%. The viability, T/C [25] was 32%, the viability, T/C [26] was 34.1% and the viability, T/C [27] was 30.6%. The viability, T/C [28] was 28.5%, the viability, T/C [29] was 24.7% and the viability, T/C [30] was 14.7%. It also gave a viability, T/C [31] of 27%, a viability, T/C [32] of 25.5% and a viability, T/C [33] of 26.7%. For the same molecule, the viability, T/C [34] was 21%, the viability, T/C [35] was 17.9% and the viability, T/C [36] was 12.5%. It also gave a viability, T/C [37] of 25.5%, a viability, T/C [38] of 22.5% and a viability, T/C [39] of 22.1%. For the same molecule, the viability, T/C [40] was 18.8%, the viability, T/C [41] was 19.7% and the viability, T/C [42] was 12%.

CCC(CC)c1cc(NC2CCC(N)C2)n2nccc2n1 (stereo unspecified) + C#Cc1c(F)ccc2cc(O)cc(-c3ncc4c(N5CC6CCC(C5)N6)nc(OCC56CCCN5CC(F)C6)nc4c3F)c12 showed an IC50 (curve of first compound, second compound 0.0316 µM) of 1460 nM, an IC50 (curve of first compound, second compound 0.1 µM) of 1250 nM and an IC50 (curve of first compound, second compound 0.316 µM) of 1360 nM. For the same molecule, the IC50 (curve of first compound, second compound 1 µM) was 1030 nM, the IC50 (curve of first compound, second compound 3.16 µM) was 665 nM and the IC50 (curve of first compound, second compound 10 µM) was 426 nM. The viability, T/C (second compound 0.0316 µM, first compound 0.0316 µM) was 111%, the viability, T/C (second compound 0.0316 µM, first compound 0.1 µM) was 163% and the viability, T/C (second compound 0.0316 µM, first compound 0.316 µM) was 113%. The viability, T/C (second compound 0.0316 µM, first compound 1 µM) was 74.5%, the viability, T/C (second compound 0.0316 µM, first compound 3.16 µM) was 1.28% and the viability, T/C (second compound 0.0316 µM, first compound 10 µM) was 1.5%. The viability, T/C (second compound 0.1 µM, first compound 0.0316 µM) was 132%, the viability, T/C (second compound 0.1 µM, first compound 0.1 µM) was 138% and the viability, T/C (second compound 0.1 µM, first compound 0.316 µM) was 96.9%. It also gave a viability, T/C (second compound 0.1 µM, first compound 1 µM) of 70.2%, a viability, T/C (second compound 0.1 µM, first compound 3.16 µM) of 1.11% and a viability, T/C (second compound 0.1 µM, first compound 10 µM) of 1.87%. It also gave a viability, T/C (second compound 0.316 µM, first compound 0.0316 µM) of 133%, a viability, T/C (second compound 0.316 µM, first compound 0.1 µM) of 135% and a viability, T/C (second compound 0.316 µM, first compound 0.316 µM) of 103%. The viability, T/C (second compound 0.316 µM, first compound 1 µM) was 73.3%, the viability, T/C (second compound 0.316 µM, first compound 3.16 µM) was 1% and the viability, T/C (second compound 0.316 µM, first compound 10 µM) was 1.94%. The viability, T/C (second compound 1 µM, first compound 0.0316 µM) was 141%, the viability, T/C (second compound 1 µM, first compound 0.1 µM) was 123% and the viability, T/C (second compound 1 µM, first compound 0.316 µM) was 98.8%. For the same molecule, the viability, T/C (second compound 1 µM, first compound 1 µM) was 58.1%, the viability, T/C (second compound 1 µM, first compound 3.16 µM) was 0.9% and the viability, T/C (second compound 1 µM, first compound 10 µM) was 1.4%. The viability, T/C (second compound 3.16 µM, first compound 0.0316 µM) was 110%, the viability, T/C (second compound 3.16 µM, first compound 0.1 µM) was 106% and the viability, T/C (second compound 3.16 µM, first compound 0.316 µM) was 67.4%. For the same molecule, the viability, T/C (second compound 3.16 µM, first compound 1 µM) was 44.9%, the viability, T/C (second compound 3.16 µM, first compound 3.16 µM) was 0.63% and the viability, T/C (second compound 3.16 µM, first compound 10 µM) was 1.4%. For the same molecule, the viability, T/C (second compound 10 µM, first compound 0.0316 µM) was 92.3%, the viability, T/C (second compound 10 µM, first compound 0.1 µM) was 83.5% and the viability, T/C (second compound 10 µM, first compound 0.316 µM) was 51.5%. It also gave a viability, T/C (second compound 10 µM, first compound 1 µM) of 37.1%, a viability, T/C (second compound 10 µM, first compound 3.16 µM) of 0.25% and a viability, T/C (second compound 10 µM, first compound 10 µM) of 0.31%.

Work on CCC(CC)c1cc(NC2CCC(N)C2)n2nccc2n1 (stereo unspecified) + CCn1c(-c2cccnc2C(C)OC)c2c3cc(ccc31)N1CCOC(CC(NC(=O)C(C(C)C)N(C)C(=O)C3(F)CCN(C(=O)C#CC(C)(C)N(C)C)CC3)C(=O)N3CCCC(N3)C(=O)OCC(C)(C)C2)C1 yielded an IC50 [1] of 1430 nM, an IC50 [2] of 1490 nM and an IC50 [3] of 1480 nM. For the same molecule, the IC50 [4] was 1380 nM, the IC50 [5] was 1340 nM and the IC50 [6] was 1040 nM. The viability, T/C [7] was 106%, the viability, T/C [8] was 103% and the viability, T/C [9] was 101%. The viability, T/C [10] was 72%, the viability, T/C [11] was 0.76% and the viability, T/C [12] was 0.94%. The viability, T/C [13] was 104%, the viability, T/C [14] was 104% and the viability, T/C [15] was 115%. It also gave a viability, T/C [16] of 76.4%, a viability, T/C [17] of 0.77% and a viability, T/C [18] of 0.9%. It also gave a viability, T/C [19] of 112%, a viability, T/C [20] of 105% and a viability, T/C [21] of 101%. For the same molecule, the viability, T/C [22] was 74.9%, the viability, T/C [23] was 0.96% and the viability, T/C [24] was 0.75%. It also gave a viability, T/C [25] of 108%, a viability, T/C [26] of 109% and a viability, T/C [27] of 115%. It also gave a viability, T/C [28] of 68.9%, a viability, T/C [29] of 0.82% and a viability, T/C [30] of 1.41%. For the same molecule, the viability, T/C [31] was 92.9%, the viability, T/C [32] was 109% and the viability, T/C [33] was 94.7%. For the same molecule, the viability, T/C [34] was 66.9%, the viability, T/C [35] was 0.68% and the viability, T/C [36] was 0.5%. For the same molecule, the viability, T/C [37] was 78.5%, the viability, T/C [38] was 88.7% and the viability, T/C [39] was 96.4%. The viability, T/C [40] was 51.9%, the viability, T/C [41] was 0.87% and the viability, T/C [42] was 1.78%.

In the case of C[C@@H](NC(=O)c1ncnc(N)c1Cl)c1ncc(C(=O)Nc2cc(C(F)(F)F)c(Cl)cn2)s1, the viability, T/C (compound 0.0316 µM) is reported as 116% [middle of 4 runs], the viability, T/C (compound 0.316 µM) is reported as 101% [middle of 4 runs] and the viability, T/C (compound 1 µM) is reported as 100% (2×) and 109% and 117%. The viability, T/C (compound 3.16 µM) was 106% [middle of 4 runs] and the IC50 (curve of compound) was > 10000 nM.

Reference: PubChem BioAssay AID2060899 (Molecular Pharmacology Branch, DTP, NCI, 2025)
